Several values for one entry are separate records, joined by “and”; a condition that tells them apart may be missing. Equal entries are not always repeated.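 A five-concentration, 48-hour dose response in 96-well plates underlies each endpoint, interpolated linearly between surrounding concentrations. Here, GI50 denotes the concentration required for 50% inhibition of growth. TGI marks complete inhibition of growth.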
Key:
Test in all cases: NCI tumour cell line growth inhibition, 48 h
[1] = test system: MOLT-4 leukemia
[2] = test system: T-47D breast
[3] = test system: EKVX NSCLC
[4] = test system: CCRF-CEM leukemia
[5] = test system: SK-MEL-2 melanoma
[6] = test system: MDA-MB-231 breast
[7] = test system: HOP-92 NSCLC
[8] = test system: MCF7 breast
[9] = test system: OVCAR-3 ovarian
[10] = test system: CAKI-1 renal

Row | SMILES | GI50 [1] | TGI [1] | GI50 [2] | TGI [2] | GI50 [3] | TGI [3] | GI50 [4] | TGI [4] | GI50 [5] | TGI [5] | GI50 [6] | TGI [6] | GI50 [7] | TGI [7] | GI50 [8] | TGI [8] | GI50 [9] | TGI [9] | TGI [10] | GI50 [10]
1 | COc1c2ccccc2c(O)c2c(=O)c(C(=O)O)cn(C)c12 | > 100 µM | > 100 µM | > 100 µM | > 100 µM | 85.2 µM | > 100 µM | > 100 µM | > 100 µM | > 100 µM | > 100 µM | > 100 µM | > 100 µM | 56.9 µM | > 100 µM | > 100 µM | > 100 µM | > 100 µM | > 100 µM | – | –
2 | Cc1ccc(-c2ccc(Nc3c4ccccc4nc4ccccc34)cc2)cn1 | – | 3.59 µM | – | 5.44 µM | – | > 100 µM | – | – | – | 3.63 µM | – | – | – | 3.28 µM | – | 8.91 µM | – | 6.41 µM | 9.02 µM | –
3 | CC(=O)O[C@H]1[C@@H]2[C@@H]3[C@@H](C[C@H]1C)[C@@H](C)CO[C@@]1(C)CC/C=C(/C)C[C@@H]2O[C@@H]31 | – | > 100 µM | – | – | – | > 100 µM | – | > 100 µM | – | > 100 µM | – | – | – | > 100 µM | – | – | – | > 100 µM | > 100 µM | –
4 | FC(F)(F)c1ccc(C=NC23CC4CC(CC(C4)C2)C3)cc1 | – | > 100 µM | – | – | – | > 100 µM | – | > 100 µM | – | > 100 µM | – | – | – | > 100 µM | – | – | – | > 100 µM | > 100 µM | –
5 | CC(=O)OCC1OC(OC2CC3C(C)(C)C(OC(C)=O)CC[C@]3(C)C3CCC45CC4(CC[C@H]5C(C)CC(O)C4OC4(C)C)[C@]23C)C(O)C(O)C1O (stereo partly drawn) | 2.52 µM | 1.09 µM and 7.69 µM | – | – | > 60 µM | > 60 µM and 11.7 µM | 2.19 µM | 2.3 µM and 5.04 µM | 4.29 µM | 6.17 µM and 14.6 µM | – | – | – | 6.33 µM | – | – | – | 8.76 µM and 7.08 µM | 12.2 µM and 29.9 µM | 15.6 µM
6 | Nc1nc2c(c3ncccc13)C(c1cccc(Cl)c1)Cc1ncccc1-2 (stereo not drawn) | 2.43 µM | 50.4 µM | 3.28 µM | 38.5 µM | 4.9 µM | > 100 µM | 2.12 µM | 48.6 µM | 1.84 µM | 15.4 µM | 4.19 µM | 23.7 µM | – | – | 0.514 µM | 17.6 µM | 1.11 µM | 4.88 µM | 51.8 µM | 3.04 µM
7 | Cc1ccc(NC(=O)CC(=O)n2nc(-c3ccccc3)c(N=Nc3ccc(Cl)cc3)c2-c2ccccc2)cc1 | – | > 100 µM | – | – | – | > 100 µM | – | 54.3 µM | – | > 100 µM | – | – | – | 89 µM | – | – | – | > 100 µM | > 100 µM | –
8 | O=C(Nc1cnn2ccc(N3CCC[C@@H]3c3cc(F)ccc3F)nc12)N1CC[C@H](O)C1 | > 100 µM | > 100 µM | > 100 µM | > 100 µM | > 100 µM | > 100 µM | – | – | > 100 µM | > 100 µM | > 100 µM | > 100 µM | > 100 µM | > 100 µM | > 100 µM | > 100 µM | > 100 µM | > 100 µM | > 100 µM | > 100 µM
9 | O=C(CC/C(C/C(=N/O)c1ccc(F)cc1)=N/O)N(Cc1ccccc1)Cc1ccccc1 | – | > 100 µM | – | – | – | > 100 µM | – | > 100 µM | – | > 100 µM | – | – | – | > 100 µM | – | – | – | > 100 µM | > 100 µM | –
10 | O=C1CC2CCCCC2=C1O (stereo not drawn) | – | > 100 µM | – | – | – | > 100 µM | – | > 100 µM | – | > 100 µM | – | – | – | – | – | – | – | > 100 µM | > 100 µM | –
11 | CC1CCCC(C(O)CC2CC(=O)N(c3ccccc3)C(=O)C2)C1=O (stereo not drawn) | – | > 100 µM | – | – | – | > 100 µM | – | > 100 µM | – | – | – | – | – | > 100 µM | – | – | – | > 100 µM | > 100 µM | –
12 | Nc1c(C(=O)c2cccc(OCCN3CCOCC3)c2)cnn1-c1ccc(F)cc1 | > 25 µM | > 25 µM | > 23.7 µM | > 25 µM | – | – | > 25 µM | > 25 µM | > 25 µM | > 25 µM | > 25 µM | > 25 µM | > 25 µM | > 25 µM | > 25 µM | > 25 µM | > 25 µM | > 25 µM | > 25 µM | > 25 µM
13 | C/C(=N\NC(=O)CC(=O)Nc1ccc(Cl)cc1)c1cc2ccccc2oc1=O | – | > 100 µM | – | – | – | > 100 µM | – | > 100 µM | – | – | – | – | – | – | – | – | – | > 100 µM | – | –
14 | Cc1ccc(S(=O)(=O)Oc2ccc3c4c(c(=O)oc3c2)CCCCC4)cc1 | 6.16 µM | > 100 µM | 4.37 µM | > 100 µM | – | – | 5.18 µM | > 100 µM | > 100 µM | > 100 µM | > 100 µM | > 100 µM | 9.26 µM | > 100 µM | 9.16 µM | > 100 µM | – | – | > 100 µM | > 100 µM
15 | Cn1cc2c(n1)c(N/N=C/c1ccccc1)nn1nnnc21 | – | > 100 µM | – | – | – | > 100 µM | – | > 100 µM | – | – | – | – | – | > 100 µM | – | – | – | > 100 µM | > 100 µM | –
16 | C=CCNC1=C(C(=O)OCC)C(=O)CO1 | – | > 100 µM | – | – | – | > 100 µM | – | > 100 µM | – | > 100 µM | – | – | – | > 100 µM | – | – | – | > 100 µM | > 100 µM | –
17 | CC1C=C(OC(=O)c2ccccc2)C(=O)C(n2cc(F)c(=O)n(C(=O)c3ccccc3)c2=O)O1 (stereo not drawn) | – | 71.4 µM | – | – | – | > 100 µM | – | 45.2 µM | – | > 100 µM | – | – | – | > 100 µM | – | – | – | 56.4 µM | 81.4 µM | –
18 | O=C([O-])c1ccc2c(c1)-c1nc-2nc2[n-]c(nc3nc(nc4[n-]c(n1)c1ccc(C(=O)[O-])cc41)-c1cc(C(=O)[O-])ccc1-3)c1ccc(C(=O)[O-])cc21.[Fe+2] | > 50 µM | > 50 µM | – | – | > 50 µM | > 50 µM | > 22.2 µM | > 31.3 µM | > 50 µM | > 50 µM | – | – | > 50 µM | > 50 µM | – | – | > 50 µM | > 50 µM | > 50 µM | > 50 µM
19 | COc1cc2c3c(n(CCN)c(=O)c2cc1OC)-c1cc2c(cc1C3=O)OCO2 | 0.084 µM | > 100 µM | 0.143 µM | 1.36 µM | 1.59 µM | 3.97 µM | < 0.01 µM | – | 3.22 µM | 10.5 µM | 0.255 µM | 0.84 µM | 0.82 µM | 2.62 µM | 0.0832 µM | 2.98 µM | – | – | 0.786 µM | < 0.0145 µM

Source: PubChem BioAssay (NCI)
